Consider 1 compound from patent US12239650B2, “Compounds for treating and preventing net associated complications” (The Australian National University, priority 2019, dated 2025).

The structures appear in SMILES notation.

A short description of data set [1]: Rat ischemia reperfusion tissue (skin) flap model. The format is in vivo. The conditions noted are these: rat skin flap IRI, 50 mg kg^−1 i.p., 72 h, FIG. 7d. The text has this: Rat ischemia reperfusion tissue flap model. The procedure employed is largely based on a previously described method (Bone, R. C. et al. Definitions for sepsis and organ failure and guidelines for the use of innovative therapies in sepsis. The ACCP/SCCM Consensus Conference Committee. American College of Chest Physicians/Society of Critical Care Medicine. Chest 101, 1644-1655 (1992)). Briefly, male Wistar rats were anaesthetized, locally depilated and a 3 cm by 6 cm fasciocutaneous flap was excised leaving the vascular pedicle intact. […] The clamp was removed 10 h post-application permitting returned blood flow to the flap. Test compounds (50 mg kg^−1) or saline were administered i.p. 5 min prior to clamp application and 5 min following its removal. The rats were monitored for a total experimental period of 72 h during which rats received additional compound or saline i.p. at 24 and 48 h post-op. The ‘Control No Clamp’ rats had the tissue flap excised and rubber placed underneath prior to re-suturing, however, the vessel was not clamped and they received saline at the same time points as the other rats. At the end of the experimental period the viability of the flaps was determined by the percentage of black necrotic or reddened areas versus pink viable areas. […]

Data set [2] concerns anti-proliferative effect of histones on HMEC-1. Kind of data set: HMEC-1 proliferation (3H-thymidine) after histone exposure. It is filed as cell-based, human. To be noted: compounds 100 μg ml^−1, histones 400 μg ml^−1, FIG. 8b.
Data set [3] has as its system histone-induced erythrocyte rigidity. Description: Erythrocyte deformability, passage through artificial spleen. The format is cell-based, human. To be noted: histones 400 μg ml^−1, compounds 100 and 200 μg ml^−1, FIG. 3d. As to the method: Human erythrocytes (RBC) were incubated for 1 h at 37° C. alone (‘Saline’ control) or in the presence of histones (400 μg ml^−1) with or without mCBS (200 μg ml^−1). a, Percentage of RBC aggregation measured by flow cytometry based on forward (FSC) and side (SSC) scatter parameters and an appropriate gating strategy to discriminate aggregated from normal (non-aggregated) RBC. b, Scanning electron micrographs depicting level of RBC aggregation at low and high magnification following the three treatments depicted in (a). c, Concentration dependent inhibition of histone-mediated RBC aggregation by mCBS and MTS, in this case RBC aggregation being calculated by flow cytometry as fold increase in RBC auto-fluorescence relative to RBC in the absence of histones. The fold increase values also provide an estimate of the number of RBC in each aggregate. d, Retention of RBC in an artificial spleen that measures RBC deformability. […]
In vitro erythrocyte microscopy, aggregation, fragility and deformability assays. […] Similarly, erythrocyte fragility induced by histones, in the presence or absence of inhibitors, was quantified using a sheer stress assay that we developed recently (Kordbacheh, F., O'Meara, C. H., Coupland, L. A., Lelliott, P. M. & Parish, C. R. Extracellular histones induce erythrocyte fragility and anemia. Blood 130, 2884-2888 (2017)). […]

In data set [4] the test system is histone-mediated cytotoxicity for HMEC-1. Description: Histone-mediated cytotoxicity assay (PI/Calcein-AM flow cytometry). It is filed as cell-based. As to the method: Histone-mediated cytotoxicity assays. To determine the cytotoxicity of calf thymus histones (Sigma-Aldrich), various concentrations of histones (100-800 μg ml^−1) were added to suspensions of HMEC-1 or HUVEC (1×10^6 ml^−1) in 96 well plates and incubated for 1 h at 37° C. Cells were then incubated for 5 min at 37° C. with propidium iodide (PI; 2.5 μg ml^−1) (ThermoFisher Scientific), to detect dead cells, and Calcein-AM (0.04 μM) (ThermoFisher Scientific), to detect viable cells, placed on ice and the percentage of dead and viable cells determined by flow cytometry using gating strategies. In inhibition assays, HMEC-1 were incubated with histones (400 μg ml^−1) for 1 h at 37° C. in the presence of different concentrations of compounds (12.5-400 μg ml^−1) prior to the addition of PI and Calcein-AM. HMEC-1 cytotoxicity at each compound concentration was then determined based on the formula:
[formula] and the IC50 value for each polyanion then determined based on the line of best fit (nonlinear regression analysis) using Prism Software (Graphpad Software). In all assays MTS (IC50 30 μg ml^−1) was included as a standard to compensate for experimental variation, with data being adjusted in each assay to MTS having an IC50 of 30 μg ml^−1.

For `O=S(=O)(O)OC[C@H]1O[C@H](O[C@H]2[C@H](OS(=O)(=O)O)[C@@H](OS(=O)(=O)O)C(OS(=O)(=O)O)O[C@@H]2COS(=O)(=O)O)[C@H](OS(=O)(=O)O)[C@@H](OS(=O)(=O)O)[C@@H]1O[C@H]1O[C@H](COS(=O)(=O)O)[C@@H](OS(=O)(=O)O)[C@H](OS(=O)(=O)O)[C@H]1OS(=O)(=O)O` (some centres unmarked) [MTS, maltotriose per-O-sulfate], the “Viable area of the skin flap” value in data set [1] is “highly variable”. The “Neutralization of anti-proliferative effect of histones on HMEC-1 monolayers” value in data set [2] was “completely neutralized”. Further, the “Ability of erythrocytes to passage through an artificial spleen” value in data set [3] was “totally restored”. Moreover, in data set [4] (compared with heparin, FIG. 2a), the “Inhibition of histone-mediated cytotoxicity for HMEC-1 (endothelial cells)” value is listed as “as effective as heparin”. Moreover, the “IC50, inhibition of histone-mediated HMEC-1 cytotoxicity” value in data set [4] (histones 400 μg ml^−1, 1 h 37° C., MTS used as standard in all assays) is 30 µg/mL.
